The values that follow come from patent US9670231B2, “Fused tricyclic amide compounds as multiple kinase inhibitors” (BEIGENE, LTD., priority 2013, dated 2017).

What all share (format): biochemical
One experiment deals with EGFR L858R kinase domain (Homo sapiens (Human), UniProt P00533, L858R). The experiment in a line: EGFR enzymatic assay, TR-FRET, EGFR L858R. On the procedure: (§1) Compounds disclosed herein were tested against WT EGFR kinase domain (aa.669-1210, Carna Biosciences, 08-115), EGFR T790M/L858R kinase domain (aa.669-1210, Carna Biosciences, 08-510) and EGFR L858R kinase domain (aa.669-1210, Carna Biosciences, 08-502) in assays based on time-resolved fluorescence-resonance energy transfer methodology. The assay was carried out in 384-well low volume black plate in a reaction mixture containing EGFR kinases, 20 LM for EGFR WT and T790M/L858R, and 125 LM for EGFR L858R), biotin-TK substrate and 0-5 LM compounds in buffer containing 50 mM HEPES pH7.5, 10 mM MgCl2, 1 mM EGTA, 0.01% Brij-35, 2.5 mM DTT, 0.1% BSA. The kinase was incubated with the compounds disclosed herein at room temperature for 120 minutes and the reaction was initiated by the addition of ATP and biotin-TK substrate. After reaction at room temperature for 30 minutes, an equal volume of stop/detection solution was added according to the manufacture's instruction (CisBio Bioassays). The stop/detection solution contained TK-Antibody-Cryptate and Streptavidin-XL665 in buffer containing 25 mM Tris pH7.4, 400 mM KF, 50 mM EDTA, 0.01% BSA, 0.01% Triton X-100. Plates were sealed and incubated at room temperature for 1 hour, and the TR-FRET signals were read on BMG PHERAstar FS instrument. The IC50 of an inhibitor was derived from fitting the % inhibition data at each compound concentration to the four-parameter logistic equation by Graphpad Prism software.
EGFR L858R kinase domain, sequence (P00533 669-1210 L858R): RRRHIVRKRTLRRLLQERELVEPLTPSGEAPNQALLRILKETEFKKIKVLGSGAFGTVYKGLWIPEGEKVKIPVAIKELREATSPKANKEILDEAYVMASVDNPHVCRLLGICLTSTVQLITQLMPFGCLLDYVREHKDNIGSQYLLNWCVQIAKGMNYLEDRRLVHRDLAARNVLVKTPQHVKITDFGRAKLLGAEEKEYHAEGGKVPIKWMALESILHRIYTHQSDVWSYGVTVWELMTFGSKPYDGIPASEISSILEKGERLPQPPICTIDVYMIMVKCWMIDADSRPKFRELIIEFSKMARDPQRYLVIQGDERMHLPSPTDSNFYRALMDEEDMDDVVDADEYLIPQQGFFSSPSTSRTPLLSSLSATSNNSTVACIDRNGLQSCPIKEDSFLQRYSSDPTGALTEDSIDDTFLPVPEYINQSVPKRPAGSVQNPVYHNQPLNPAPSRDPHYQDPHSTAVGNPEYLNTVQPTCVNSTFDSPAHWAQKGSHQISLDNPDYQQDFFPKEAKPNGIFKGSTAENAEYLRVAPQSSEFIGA
A general note: In TR-FRET formats the signal depends on donor and acceptor labels being close together.

For experiment [1], the target named is EGFR T790M/L858R kinase domain (Homo sapiens (Human), UniProt P00533, L858R/T790M). As to the kind of experiment: EGFR enzymatic assay, TR-FRET, EGFR T790M/L858R. How it is done: as §1
EGFR T790M/L858R kinase domain, sequence (P00533 669-1210 T790M/L858R): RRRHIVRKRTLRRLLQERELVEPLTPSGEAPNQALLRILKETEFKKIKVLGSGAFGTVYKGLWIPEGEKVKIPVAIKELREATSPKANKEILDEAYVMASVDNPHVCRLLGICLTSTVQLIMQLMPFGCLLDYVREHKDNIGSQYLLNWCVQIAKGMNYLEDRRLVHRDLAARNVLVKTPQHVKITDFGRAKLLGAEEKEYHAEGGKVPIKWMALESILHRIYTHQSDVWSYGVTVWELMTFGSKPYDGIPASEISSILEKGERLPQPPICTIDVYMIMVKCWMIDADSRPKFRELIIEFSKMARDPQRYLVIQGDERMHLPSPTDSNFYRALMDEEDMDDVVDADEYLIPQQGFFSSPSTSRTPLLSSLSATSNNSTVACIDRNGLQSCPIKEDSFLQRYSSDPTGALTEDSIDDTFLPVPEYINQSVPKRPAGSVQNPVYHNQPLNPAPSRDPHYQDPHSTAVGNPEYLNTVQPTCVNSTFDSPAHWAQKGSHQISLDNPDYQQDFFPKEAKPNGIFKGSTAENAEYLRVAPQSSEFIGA
The target of a further experiment is WT EGFR kinase domain (Homo sapiens (Human), UniProt P00533). The experiment in a line: EGFR enzymatic assay, TR-FRET, WT EGFR. On the procedure:
as §1

In a further experiment the target is B-Raf (V600E) (Homo sapiens (Human), UniProt P15056, V600E). As to the kind of experiment: Raf IC50 assay, TR-FRET, B-Raf (V600E). The following applies: 0.1 mM ATP; read-out: IC50 BRAF-V600E. On the procedure: The enzyme was incubated with the compounds disclosed herein at room temperature for 60 minutes and the reactions were initiated by the addition of ATP and GST-MEK1. After reaction at room temperature for 60 minutes, an equal volume of stop/detection solution was added according to the manufacture's instruction (CisBio Bioassays). […] The IC50 for each compound was derived from fitting the dose-response % inhibition data to the four-parameter logistic model by Graphpad Prism software.
B-Raf (V600E), sequence (P15056 whole entry V600E): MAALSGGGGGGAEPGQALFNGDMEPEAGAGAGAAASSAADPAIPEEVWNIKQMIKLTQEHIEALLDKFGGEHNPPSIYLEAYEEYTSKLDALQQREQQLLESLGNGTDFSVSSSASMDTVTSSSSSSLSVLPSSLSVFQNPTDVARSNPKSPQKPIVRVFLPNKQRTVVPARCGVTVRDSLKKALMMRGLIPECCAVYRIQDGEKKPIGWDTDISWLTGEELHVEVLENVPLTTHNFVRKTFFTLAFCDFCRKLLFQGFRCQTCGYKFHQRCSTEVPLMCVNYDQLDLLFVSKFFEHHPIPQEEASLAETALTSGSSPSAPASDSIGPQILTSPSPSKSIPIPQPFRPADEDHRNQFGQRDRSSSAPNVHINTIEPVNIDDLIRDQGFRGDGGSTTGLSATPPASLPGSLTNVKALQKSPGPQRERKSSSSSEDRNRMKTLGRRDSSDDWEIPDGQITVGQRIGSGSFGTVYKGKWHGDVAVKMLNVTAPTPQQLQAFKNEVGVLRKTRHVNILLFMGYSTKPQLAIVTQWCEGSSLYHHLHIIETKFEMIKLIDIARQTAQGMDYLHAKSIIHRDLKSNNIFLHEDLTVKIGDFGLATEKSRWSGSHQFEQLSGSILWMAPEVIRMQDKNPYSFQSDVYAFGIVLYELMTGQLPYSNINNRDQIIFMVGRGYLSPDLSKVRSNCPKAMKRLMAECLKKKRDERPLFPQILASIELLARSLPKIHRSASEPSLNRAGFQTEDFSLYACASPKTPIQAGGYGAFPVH

The target of another experiment is wild type B-Raf (Homo sapiens (Human), UniProt P15056). As to the kind of experiment: WT BRaf IC50 assay, TR-FRET. Set-up: Braf-WT Km ATP, % at 100 nM: scale not given here. Particulars: for IC50: Km ATP ([…] ATP), read-out: IC50 Braf-WT Km ATP. On the procedure: WT BRaf IC50 Assay Protocol
wild type B-Raf, sequence (P15056 whole entry): as the sequence (P15056 whole entry V600E) above, with E600V counted along it
Compounds disclosed herein were tested against wild type B-Raf (PV3848, from Invitrogen) in a time-resolved fluorescence energy transfer assay. […] The enzyme was incubated with the compounds disclosed herein at room temperature for 120 minutes and the reactions were initiated by the addition of ATP and GST-MEK1. After incubating at room temperature for 60 minutes, an equal volume of stop buffer containing 25 mM Tris pH7.4, 400 mM KF, 50 mM EDTA, 0.1% BSA, 0.01% Triton X-100, 1 test of Eu3+Cryptate-conjugated rabbit polyclonal antibody anti-Phospho MEK1/2 (Ser217/221) and 1 test of d2-conjugated mouse monoclonal antibody anti-glutathione S-transferase was added to stop the reactions. Plates were sealed and incubated at room temperature for 1.5 hours, and then the TR-FRET signals were read on BMG PHERAstar FS instrument. The IC50 for each compound was calculated by non linear regression by Graphpad Prism software.

For orientation: IC50 means the midpoint of a concentration-inhibition curve.

WT EGFR kinase domain, sequence (P00533 669-1210): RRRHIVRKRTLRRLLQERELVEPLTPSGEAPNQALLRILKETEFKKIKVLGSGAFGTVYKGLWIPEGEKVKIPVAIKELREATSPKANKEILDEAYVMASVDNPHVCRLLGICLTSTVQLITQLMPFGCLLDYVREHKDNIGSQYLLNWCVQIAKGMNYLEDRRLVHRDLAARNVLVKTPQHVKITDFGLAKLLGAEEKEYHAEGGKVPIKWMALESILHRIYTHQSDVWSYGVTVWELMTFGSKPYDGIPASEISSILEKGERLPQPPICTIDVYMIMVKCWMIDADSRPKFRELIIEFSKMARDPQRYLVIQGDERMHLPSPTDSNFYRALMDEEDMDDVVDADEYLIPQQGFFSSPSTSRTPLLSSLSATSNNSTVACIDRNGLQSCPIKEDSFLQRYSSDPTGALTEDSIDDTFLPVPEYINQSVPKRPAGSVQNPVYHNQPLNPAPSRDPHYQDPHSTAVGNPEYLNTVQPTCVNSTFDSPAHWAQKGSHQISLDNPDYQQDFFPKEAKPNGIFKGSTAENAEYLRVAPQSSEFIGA

Regarding `CC1CN(Cc2ccc(C(=O)N[C@@H]3[C@H]4Oc5ccc(Oc6ccnc7c6CCC(=O)N7)cc5[C@@H]34)cc2C(F)(F)F)CC(C)N1` (stereo partly drawn) [Compound 1.65, 4-((3,5-dimethylpiperazin-1-yl)methyl)-N-((1S,1aS,6bS)-5-((7-oxo-5,6,7,8-tetrahydro-1,8-naphthyridin-4-yl)oxy)-1a,6b-dihydro-1H-cyclopropa[b]benzofuran-1-yl)-3-(trifluoromethyl)benzamide], the IC50 against EGFR L858R kinase domain was found to be 1.1 nM; in experiment [1] it was 11 nM; at WT EGFR kinase domain it was 1.9 nM; on B-Raf (V600E), 8.1 nM.
The like results for `CNC(=O)c1cc(Oc2ccc3c(c2)[C@H]2[C@H](NC(=O)c4ccc(CN5CCN(C)CC5)c(C(F)(F)F)c4)[C@H]2O3)ccn1` [Compound 2.4] were, in that order, 4.1 nM, 7.3 nM, 6.8 nM and 49 nM.
Consider `CN1CCN(Cc2ccc(C(=O)N[C@@H]3[C@H]4Oc5ccc(Oc6ccnc7c6CNC(=O)N7)cc5[C@@H]34)cc2C(F)(F)F)CC1` [Compound 2.7], for which the IC50 stood at 0.15 nM against EGFR L858R kinase domain, 0.084 nM in experiment [1], 0.67 nM at WT EGFR kinase domain and 16 nM on B-Raf (V600E).
On to `CN1CCN(CCOc2ccc(C(=O)N[C@@H]3[C@H]4Oc5ccc(Oc6ccnc7c6CCC(=O)N7)cc5[C@@H]34)cc2C(F)(F)F)CC1` [Compound 1.52], for which, on wild type B-Raf, the IC50 was found to be 15 nM.
Consider `CCN1CCC(Oc2ccc(C(=O)N[C@@H]3[C@H]4Oc5ccc(Oc6ccnc7c6CCC(=O)N7)cc5[C@@H]34)cc2C(F)(F)F)CC1` [Compound 1.64], for which the IC50 against EGFR L858R kinase domain was < 0.25 nM; in experiment [1], 0.46 nM; on WT EGFR kinase domain, 1.1 nM; on B-Raf (V600E) it was 12 nM.
As for `CN(C)C1CCN(c2ccc(C(=O)N[C@@H]3[C@H]4Oc5ccc(Oc6ccnc7c6CCC(=O)N7)cc5[C@@H]34)cc2C(F)(F)F)CC1` [Compound 1.71], the IC50 on EGFR L858R kinase domain was found to be 2.1 nM; in experiment [1], 21 nM; at WT EGFR kinase domain, 2.7 nM; at B-Raf (V600E), 10 nM.
For the compound `O=C1CCc2c(Oc3ccc4c(c3)[C@H]3[C@H](NC(=O)c5ccc(CN6CCN(CC(F)(F)F)CC6)c(C(F)(F)F)c5)[C@H]3O4)ccnc2N1` [Compound 1.2], the IC50 is 292 nM against EGFR L858R kinase domain, 813 nM in experiment [1], 249 nM at WT EGFR kinase domain and 27 nM on B-Raf (V600E).
Take `CCN1CCN(Cc2ccc(C(=O)NC3C4Oc5c(C)cc(Oc6ccnc7c6CCC(=O)N7)cc5C34)cc2C(F)(F)F)CC1` (centres unmarked) [Compound 1.55, 4-((4-ethylpiperazin-1-yl)methyl)-N-(3-methyl-5-((7-oxo-5,6,7,8-tetrahydro-1,8-naphthyridin-4-yl)oxy)-1a,6b-dihydro-1H-cyclopropa[b]benzofuran-1-yl)-3-(trifluoromethyl)benzamide]: the IC50 at EGFR L858R kinase domain came to 0.35 nM; in experiment [1], 0.4 nM; on WT EGFR kinase domain, 2.2 nM; on B-Raf (V600E), 18 nM.
For the compound `CN(C)C1CCN(Cc2ccc(C(=O)N[C@@H]3[C@H]4Oc5ccc(Oc6ccnc7c6CCC(=O)N7)cc5[C@@H]34)cc2C(F)(F)F)CC1` [Compound 1.20], on wild type B-Raf, the IC50 was 16 nM.
As for `C[C@@H]1CN(Cc2ccc(C(=O)N[C@@H]3[C@H]4Oc5ccc(Oc6ccnc7c6CCC(=O)N7)cc5[C@@H]34)cc2C(F)(F)F)C[C@H](C)O1` [Compound 1.13], the IC50 came out at 11 nM against EGFR L858R kinase domain, 47 nM in experiment [1], 59 nM at WT EGFR kinase domain and 86 nM on B-Raf (V600E).
With `O=C1CCc2c(Oc3ccc4c(c3)[C@H]3[C@H](NC(=O)Cc5cccc(C(F)(F)F)c5)[C@H]3O4)ccnc2N1` [Compound 1.60], the IC50 against EGFR L858R kinase domain is 949 nM; in experiment [1] it was 2550 nM; at WT EGFR kinase domain, 3450 nM; on B-Raf (V600E), 1.5 nM.
In the same order, the values of `Cc1cc(C(=O)N[C@@H]2[C@H]3Oc4ccc(Oc5ccnc6c5CCC(=O)N6)cc4[C@@H]23)ccc1CO` [Compound 1.59, 4-(hydroxymethyl)-3-methyl-N-((1S,1aS,6bS)-5-((7-oxo-5,6,7,8-tetrahydro-1,8-naphthyridin-4-yl)oxy)-1a,6b-dihydro-1H-cyclopropa[b]benzofuran-1-yl)benzamide] are 4.8 nM, 6.2 nM, 19 nM and 1 nM.
The like results for `CCN1CCN(Cc2ccc(C(=O)N[C@@H]3[C@H]4Oc5ccc(Oc6ccnc7c6CCC(=O)N7)cc5[C@@H]34)cc2OC(F)(F)F)CC1` [Compound 1.78, 4-((4-ethylpiperazin-1-yl)methyl)-N-((1S,1aS,6bS)-5-((7-oxo-5,6,7,8-tetrahydro-1,8-naphthyridin-4-yl)oxy)-1a,6b-dihydro-1H-cyclopropa[b]benzofuran-1-yl)-3-(trifluoromethoxy)benzamide] were, in that order, 0.79 nM, 8 nM, 1.2 nM and 10 nM.
With `O=C1CCc2c(Oc3ccc4c(c3)[C@H]3[C@H](NC(=O)c5ccc(C(F)(F)F)c(F)c5)[C@H]3O4)ccnc2N1` [Compound 1.42], the “Braf-WT Km ATP, % at 100 nM” value on wild type B-Raf (at 100 nM compound, Km ATP) is listed as 102% at 100 nM. Also, at B-Raf (V600E), the IC50 stood at 9.2 nM.
As for `Cc1cc(C(=O)N[C@@H]2[C@H]3Oc4ccc(Oc5ccnc6c5CCC(=O)N6)cc4[C@@H]23)ccc1CN1CCN(C)CC1` [Compound 1.58], the IC50 is 0.31 nM on EGFR L858R kinase domain, 1.8 nM in experiment [1], 1.2 nM at WT EGFR kinase domain and 5.5 nM on B-Raf (V600E).
As for `CN1CCN(Cc2ccc(C(=O)N[C@@H]3[C@H]4Oc5ccc(Oc6ccnc7c6CCC(=O)N7)cc5[C@@H]34)cc2Br)CC1` [Compound 1.23], the IC50 at EGFR L858R kinase domain stood at 0.24 nM; in experiment [1], 0.52 nM; against WT EGFR kinase domain, 1.1 nM; on B-Raf (V600E) it was 5.4 nM.
Turning to `CN(C)[C@H]1CCN(Cc2ccc(C(=O)N[C@@H]3[C@H]4Oc5ccc(Oc6ccnc7c6CCC(=O)N7)cc5[C@@H]34)cc2C(F)(F)F)C1` [Compound 1.9], at wild type B-Raf, the IC50 worked out at 32 nM.
With `CCN1CCC(=Cc2ccc(C(=O)N[C@@H]3[C@H]4Oc5ccc(Oc6ccnc7c6CCC(=O)N7)cc5[C@@H]34)cc2C(F)(F)F)CC1` [Compound 1.75, 4-((1-ethylpiperidin-4-ylidene)methyl)-N-((1S,1aS,6bS)-5-((7-oxo-5,6,7,8-tetrahydro-1,8-naphthyridin-4-yl)oxy)-1a,6b-dihydro-1H-cyclopropa[b]benzofuran-1-yl)-3-(trifluoromethyl)benzamide], the IC50 against EGFR L858R kinase domain came to 0.26 nM; in experiment [1], 0.18 nM; on WT EGFR kinase domain it was 1.3 nM; on B-Raf (V600E), 21 nM.
For `O=C1CCc2c(Oc3ccc4c(c3)[C@H]3[C@H](NC(=O)c5cccc(C(F)(F)F)n5)[C@H]3O4)ccnc2N1` [Compound 1.63], the IC50 against EGFR L858R kinase domain came to 296 nM; in experiment [1], 234 nM; at WT EGFR kinase domain, 1140 nM; on B-Raf (V600E), 2.5 nM.
The like results for `CCCCCCC(=O)N[C@@H]1[C@H]2Oc3ccc(Oc4ccnc5c4CCC(=O)N5)cc3[C@@H]12` [Compound 1.68] were, in that order, 71 nM, 95 nM, 98 nM and 0.77 nM.
`CN1CCN(Cc2ccc(C(=O)N[C@@H]3[C@H]4Oc5ccc(Oc6ccnc7c6CCC(=O)N7)cc5[C@@H]34)cc2Cl)CC1` [Compound 1.22]: the IC50 was 0.23 nM against EGFR L858R kinase domain, 0.47 nM in experiment [1], 0.8 nM at WT EGFR kinase domain and 4.8 nM at B-Raf (V600E).
Consider `CN(C)Cc1cc(C(=O)N[C@@H]2[C@H]3Oc4ccc(Oc5ccnc6c5CCC(=O)N6)cc4[C@@H]23)cc(C(F)(F)F)c1` [Compound 1.66], for which the IC50 on EGFR L858R kinase domain came out at 13 nM; in experiment [1], 81 nM; at WT EGFR kinase domain it was 9.3 nM; at B-Raf (V600E) it was 3.6 nM.
